Laboratory results from the supplement of paper PMC10307832.

Legend:
Assay in all cases: relative viability (nuclei count vs DMSO), 5 days (fraction); higher = more cells survive
[1] = compound: CCCS(=O)(=O)Nc1ccc(F)c(C(=O)c2c[nH]c3ncc(-c4ccc(Cl)cc4)cc23)c1F [Vemurafenib] + Cc1nc(NC(=O)N2CCC[C@H]2C(N)=O)sc1-c1ccnc(C(C)(C)C(F)(F)F)c1 [Alpelisib] (partner 2 µM)
Method in brief: (§1)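 Lung cancer cell lines were seeded in 1536-well plates and dosed by pin tool the next day, with either a single drug or a fixed anchor-drug dose combined with five library-drug doses (not always all listed) spaced in √10 steps. Five days later, one step fixed the cells and stained their nuclei (final 0.05% Triton X-100, 1% formaldehyde, 1 ug/ml Hoechst), and nuclei were counted on 4× images. Relative viability is the nuclei count in treated wells divided by the count in vehicle wells, and each value is the median of duplicate plates.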

[2] = compound: CCCS(=O)(=O)Nc1ccc(F)c(C(=O)c2c[nH]c3ncc(-c4ccc(Cl)cc4)cc23)c1F [Vemurafenib] + CCNC(=O)c1noc(-c2cc(C(C)C)c(O)cc2O)c1-c1ccc(CN2CCOCC2)cc1 [Luminespib] (partner 0.01 µM)
Method in brief: as §1

[3] = compound: COc1cccc2cc(-c3nc([C@H]4CC[C@H](C(=O)O)CC4)n4ncnc(N)c34)[nH]c12 [OSI-027] + CC1(C)CCC(c2ccc(Cl)cc2)=C(CN2CCN(c3ccc(C(=O)NS(=O)(=O)c4ccc(N[C@H](CCN5CCOCC5)CSc5ccccc5)c(S(=O)(=O)C(F)(F)F)c4)cc3)CC2)C1 [Navitoclax] (partner 0.5 µM)
Method in brief: as §1

[4] = compound: COc1cccc2cc(-c3nc([C@H]4CC[C@H](C(=O)O)CC4)n4ncnc(N)c34)[nH]c12 [OSI-027] + Cc1cc(Nc2cc(N3CCN(C)CC3)nc(Sc3ccc(NC(=O)C4CC4)cc3)n2)n[nH]1 [Tozasertib] (partner 0.1 µM)
Method in brief: as §1

Cell Line | relative viability ([1]; first compound 0.03162 µM) | relative viability ([1]; first compound 0.1 µM) | relative viability ([1]; first compound 0.3162 µM) | relative viability ([1]; first compound 1 µM) | relative viability ([2]; first compound 0.03162 µM) | relative viability ([2]; first compound 0.1 µM) | relative viability ([2]; first compound 0.3162 µM) | relative viability ([2]; first compound 1 µM) | relative viability ([3]; first compound 0.01 µM) | relative viability ([3]; first compound 0.03162 µM) | relative viability ([3]; first compound 0.1 µM) | relative viability ([3]; first compound 0.3162 µM) | relative viability ([3]; first compound 1 µM) | relative viability ([4]; first compound 0.01 µM) | relative viability ([4]; first compound 0.03162 µM) | relative viability ([4]; first compound 0.1 µM) | relative viability ([4]; first compound 0.3162 µM) | relative viability ([4]; first compound 1 µM)
NCI-H1437 | 0.915 | 0.96 | 0.842 | 0.901 | 1.09 | 1.07 | 1.2 | 1.12 | 1.12 | 1.01 | 1.14 | 1 | 0.487 | 0.418 | 0.379 | 0.456 | 0.413 | 0.318
NCI-H1666 | 0.872 | – | 1.07 | 0.965 | 0.933 | 0.877 | 1.02 | 0.966 | 0.912 | 0.878 | 0.662 | 0.575 | 0.391 | 0.611 | 0.686 | 0.646 | 0.629 | 0.537
NCI-H647 | 0.898 | 1.12 | 0.995 | 0.891 | 0.157 | 0.165 | 0.138 | 0.212 | 1.18 | 1.11 | 1.09 | 0.994 | 0.643 | 0.401 | 0.291 | 0.292 | 0.433 | 0.147
NCI-H1623 | – | – | – | – | 0.631 | – | 0.679 | 0.414 | – | – | – | – | – | 0.391 | 0.414 | 0.417 | 0.414 | 0.233
NCI-H23 | 0.626 | 0.642 | 0.912 | 0.664 | 0.194 | 0.211 | 0.166 | 0.228 | 0.666 | 0.955 | 0.808 | 0.604 | 0.319 | 0.636 | 0.269 | 0.34 | 0.413 | 0.306
NCI-H1915 | 1.02 | 1.04 | 1.03 | 0.993 | 0.698 | 0.727 | 0.795 | 0.636 | 0.831 | 0.779 | 0.809 | 0.801 | 0.85 | 0.488 | 0.445 | 0.525 | 0.475 | 0.404
HOP-62 | 1.09 | 0.954 | 0.928 | 0.808 | 0.902 | 0.843 | 0.931 | 0.971 | 1.11 | 1.09 | 1.02 | 1.13 | 0.646 | 0.382 | 0.39 | 0.369 | 0.442 | 0.277
NCI-H2342 | – | – | – | – | 0.609 | 0.622 | 0.792 | 0.701 | – | – | – | – | – | 0.445 | 0.509 | 0.492 | 0.449 | 0.421
NCI-H520 | 0.979 | 1.05 | 0.94 | 0.793 | 0.187 | 0.231 | 0.221 | 0.233 | 1.31 | 1.05 | 0.793 | 0.637 | 0.303 | 0.429 | 0.385 | 0.396 | 0.339 | 0.193
COR-L23 | 0.706 | 0.693 | 0.687 | 0.78 | 0.571 | 0.744 | 0.632 | 0.688 | 0.988 | 0.782 | 0.938 | 0.923 | 0.36 | 0.18 | 0.185 | 0.237 | 0.287 | 0.19
A549 | 0.568 | 0.713 | 0.772 | 0.867 | – | – | – | – | 1.16 | 1.24 | 1.01 | 0.971 | 0.319 | – | – | – | – | –
H3255 | 0.688 | – | 0.643 | 0.663 | 0.837 | – | 0.824 | 0.809 | 0.411 | 0.483 | 0.442 | 0.428 | 0.227 | 0.749 | 0.62 | 0.604 | 0.555 | 0.436
NCI-H1792 | 0.624 | 0.673 | 0.61 | 0.693 | 0.373 | 0.345 | 0.575 | 0.434 | 0.417 | 0.458 | 0.556 | 0.572 | 0.43 | – | – | – | – | –
EBC-1 | 0.835 | 0.833 | 0.805 | 0.834 | – | – | – | – | 0.382 | 0.33 | 0.432 | 0.239 | 0.203 | – | – | – | – | –
ABC-1 | 0.916 | 0.878 | 1.25 | 1.14 | – | – | – | 0.779 | – | – | – | – | – | 0.197 | 0.179 | 0.203 | 0.167 | 0.206
NCI-H1563 | 0.874 | 0.935 | 0.904 | 0.949 | 0.505 | 0.475 | 0.563 | 0.59 | – | – | – | – | – | – | – | – | – | –
LCLC-103H | 0.901 | 0.883 | 1.02 | 1.04 | 0.914 | 0.805 | 0.899 | 0.967 | – | – | – | – | – | 0.49 | 0.424 | 0.489 | 0.44 | 0.333
Calu-6 | 0.975 | 0.891 | 0.817 | 0.904 | – | – | – | – | 0.78 | 0.897 | 0.752 | 0.782 | 0.493 | – | – | – | – | –
NCI-H650 | 0.954 | 1.12 | 0.621 | 0.781 | 0.72 | 0.852 | – | 0.637 | – | – | – | – | – | 0.711 | 0.738 | 0.637 | 0.605 | 0.411
ChaGo-K-1 | – | – | – | – | 0.555 | 0.45 | 0.548 | 0.551 | 0.988 | 1.4 | 0.533 | 0.759 | 0.713 | 0.208 | 0.222 | 0.203 | 0.382 | 0.172
NCI-H1648 | – | – | – | – | – | – | – | – | – | – | – | – | – | 0.412 | – | 0.419 | 0.366 | 0.305
NCI-H358 | 0.872 | – | 1.16 | 0.809 | 0.27 | – | 0.504 | 0.267 | – | – | – | – | – | 0.105 | 0.0898 | 0.0968 | 0.0931 | 0.0733
SW 900 | – | – | – | – | 0.168 | 0.174 | 0.207 | 0.208 | – | – | – | – | – | – | 0.548 | 0.493 | 0.589 | 0.483
HCC-78 | 0.351 | 0.249 | 0.663 | 0.361 | – | – | – | – | 0.868 | 0.766 | 0.371 | 0.454 | 0.278 | 0.506 | 0.374 | 0.435 | 0.334 | 0.241
